This note sets out measurements from patent US7423122B2, “N-terminal and C-terminal markers in nascent proteins” (priority 1999, dated 2008).

In test [1] the test system is E. coli T7 S30 transcription/translation extract. Type of test: biochemical.
The target of the next test is α-HL (Staphylococcus aureus, UniProt P09616).
The target in another test is α-hemolysin (Staphylococcus aureus, UniProt P09616).
In test [2] the test system is E. coli S30 translation mixtures. It is filed as biochemical.
The subject of test [3] is E. coli T7 S30 transcription/translation extract. Type of test: biochemical. This is another data set of the same source.
The test system of test [4] is rabbit red blood cells (rRBCs). Type of test: cell-based.

Values joined by “and” are separate entries in the source; they are usually repeats but may differ in a detail not shown here. Equal entries are not always repeated.

Chain of α-hemolysin (P09616 26-319, looked up, natural form): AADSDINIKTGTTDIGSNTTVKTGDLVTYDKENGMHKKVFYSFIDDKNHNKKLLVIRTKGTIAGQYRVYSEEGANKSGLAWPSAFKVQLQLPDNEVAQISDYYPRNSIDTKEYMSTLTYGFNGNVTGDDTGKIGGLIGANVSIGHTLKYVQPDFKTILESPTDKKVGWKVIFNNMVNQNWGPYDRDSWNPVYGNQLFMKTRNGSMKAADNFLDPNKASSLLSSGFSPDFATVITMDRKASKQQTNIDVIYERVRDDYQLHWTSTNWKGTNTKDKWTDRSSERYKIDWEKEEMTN
Chain of α-HL (P09616 26-319, looked up, natural form): as above

As for “6-(tetramethylrhodamine-5-(and-6)-carboxamido)hexanoic acid, succinimidyl ester [5/6-TAMRA]”, the “fluorescence of α-HL band relative to BODIPY-FL-SSE” value in test [1] stood at 35%.
Take `COc1ccc(-c2cnc(-c3cc[n+](Cc4cccc(C(=O)ON5C(=O)CCC5=O)c4)cc3)o2)cc1` [PyMPO, 1-(3-(succinimidyloxycarbonyl)benzyl)-4-(5-(4-methoxyphenyl)oxazol-2-yl) pyridininium bromide]: the “reduction in fluorescence compared with BODIPY-FL” value in test [1] was “approximately an order of magnitude reduction in fluorescence”.
On to “4,4-difluoro-5,7-dimethyl-4-bora-3a,4a-diaza-s-indacene [BODIPY-FL]”, for which the “molar ratio of incorporated BODIPY-FL to protein” value at α-HL was 0.29+/−0.03%. Moreover, at α-hemolysin, the “amount of alpha-hemolysin detectable” value is reported as “Approximately 10 ng”, the “amount of protein detectable” value is 0.3 ng, the “amount of α-hemolysin detectable” value is on record as 0.35-0.5 nanograms and the “smallest volume of original reaction mixture giving detectable α-HL band” value stood at 0.007 µL.
In the case of Alexa 350-N-hydroxy-succinimide ester, the “detectability / incorporation of fluorescent α-HL bands” value in test [2] was “seems to not incorporate as well as its neutral counterpart”.
As to “6-(fluorescein-5-(and-6) carboxamido)hexanoic acid, succinimidyl ester [Fluorescein (SFX)]”, in test [1], the “fluorescence of α-HL band relative to BODIPY-FL-SSE” value turned out to be 4.6%.
With “4,4-difluoro-5,7-dimethyl-4-bora-3a, 4a-diaza-s-indacene propionic acid, sulfosuccinimidyl ester [BODIPY-FL, SSE]”, in test [1], the “level of fluorescence of HL band compared to non-sulfonated form” value is recorded as “approximately 2 times”.
α-Hemolysin: the “earliest time of band detection after initiation of incubation” value in test [3] was 5 min. The α-Hemolysin activity in test [4] was 0.085 OD415 nm/μl and 0.083 OD415 nm/μl.
On to “5-(and-6)-carboxyfluorescein, succinimidyl-ester [Fluorescein (FAM)]”, for which the “fluorescence of α-HL band relative to BODIPY-FL-SSE” value in test [1] is recorded as 8.4%.
For “succinimidyl 7-amino-methyl-amino-coumarin acetate [AMCA-NHS]”, the “detectability / incorporation of fluorescent α-HL bands” value in test [2] is “very low levels of detectable fluorescent bands”.
Still for that read-out and setting: then `Cc1c(CC(=O)ON2C(=O)CC(S(=O)(=O)O)C2=O)c(=O)oc2cc(N)ccc12` (stereo not drawn) [AMCA-sulfo-NHS, sulfosuccinimidyl 7-amino-4-methylcoumarin-3-acetate], with “easily detectable bands”.
